From PubChem BioAssay AID248 (DTP/NCI, 2004)
Where “and” joins values, the source holds several entries; their conditions need not be identical. Equal values may be shown once. Toxic doses and inconclusive results are not listed. No stated cut-off is given here; in the data, active means T/C of 150% or more; inactive means T/C below 125%.

System: L1210 leukemia ip in BDF1 mice, survival T/C
Experiment: NCI In Vivo Anticancer Drug Screen. Data for tumor model L1210 Leukemia (intraperitoneal) in B6D2F1 (BDF1) mice
Details: endpoint: mean survival time, higher = longer survival
Summary of the method: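 Read-out is survival time, reported as the treated-group measurement over the vehicle-control measurement.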

Measured: T/C

Cc1ccc(NC(=O)c2cccc(C(=O)Nc3ccc(C)cc3C)c2)c(C)c1
inactive: dose: 12.5 mg/kg/injection, schedule: Q04DX003 (ip), vehicle: saline with Tween-80 98 % of control | dose: 25.0 mg/kg/injection, schedule: Q04DX003 (ip), vehicle: saline with Tween-80 98 % of control | dose: 50.0 mg/kg/injection, schedule: Q04DX003 (ip), vehicle: saline with Tween-80 93 % of control | dose: 200.0 mg/kg/injection, schedule: Q04DX003 (ip), vehicle: saline with Tween-80 87 % of control

C/C=C/N1CCN(/C=C/C)C1=O
inactive: dose: 25.0 mg/kg/injection, schedule: Q04DX002 (ip), vehicle: Klucel (hydroxypropylcellulose) (HPC) 96 % of control | dose: 50.0 mg/kg/injection, schedule: Q04DX002 (ip), vehicle: Klucel (hydroxypropylcellulose) (HPC) 102 % of control | dose: 100.0 mg/kg/injection, schedule: Q04DX002 (ip), vehicle: Klucel (hydroxypropylcellulose) (HPC) 90 % of control

COc1ccc(CC(=O)NCCc2ccccc2)cc1OC
inactive: dose: 12.5 mg/kg/injection, schedule: Q01DX009 (ip), vehicle: saline with Tween-80 92 % of control | dose: 25.0 mg/kg/injection, schedule: Q01DX009 (ip), vehicle: saline with Tween-80 92 % of control | dose: 50.0 mg/kg/injection, schedule: Q01DX009 (ip), vehicle: saline with Tween-80 103 % of control and 92 % of control | dose: 100.0 mg/kg/injection, schedule: Q01DX009 (ip), vehicle: saline with Tween-80 105 % of control

CC#CCCC(=O)OCCCC
inactive: dose: 100.0 mg/kg/injection, schedule: Q04DX002 (ip), vehicle: saline with Tween-80 101 % of control | dose: 200.0 mg/kg/injection, schedule: Q04DX002 (ip), vehicle: saline with Tween-80 93 % of control | dose: 400.0 mg/kg/injection, schedule: Q04DX002 (ip), vehicle: saline with Tween-80 97 % of control

COC(=O)C1CC(C)(C)N(C)C1(C)C (stereo not drawn)
inactive: dose: 100.0 mg/kg/injection, schedule: Q01DX009 (ip), vehicle: Klucel (hydroxypropylcellulose) (HPC) 101 % of control | dose: 100.0 mg/kg/injection, schedule: Q04DX003 (ip), vehicle: Klucel (hydroxypropylcellulose) (HPC) 100 % of control | dose: 200.0 mg/kg/injection, schedule: Q01DX009 (ip), vehicle: Klucel (hydroxypropylcellulose) (HPC) 106 % of control and 92 % of control | dose: 200.0 mg/kg/injection, schedule: Q04DX003 (ip), vehicle: Klucel (hydroxypropylcellulose) (HPC) 103 % of control

COc1cc(C)c(C=O)cc1OC
inactive: dose: 5.0 mg/kg/injection, schedule: Q01DX001 (ip), vehicle: saline 103 % of control | dose: 10.0 mg/kg/injection, schedule: Q01DX001 (ip), vehicle: saline 107 % of control | dose: 20.0 mg/kg/injection, schedule: Q01DX001 (ip), vehicle: saline 97 % of control | dose: 40.0 mg/kg/injection, schedule: Q01DX001 (ip), vehicle: saline 101 % of control | dose: 80.0 mg/kg/injection, schedule: Q01DX001 (ip), vehicle: saline 109 % of control
